In paper PMC4380424, “Prediction of Overall In Vitro Microsomal Stability of Drug Candidates Based on Molecular Modeling and Support Vector Machines. Case Study of Novel Arylpiperazines Derivatives” (PLoS ONE, 2015):
“Also recorded” adds a separate entry of the source.

Assays:
[1] = Metabolic stability: in vitro incubation with human liver microsomes and NADPH, LC-MS quantification; settings: pooled human liver microsomes, pH 7.4
Description: (§1) The studied compounds were dissolved in acetonitrile (compounds 1, 3, 4, 10, 18, 19, 21, 22, 23, 24, 25, 26, 27, 28, 29), water (compounds 2, 7, 9, 11, 12, 13, 14, 15, 16, 17, 20, 30) or dimethyl sulfoxide (compounds 5 and 6), and diluted in phosphate buffer (pH = 7.4) to obtain 100 μM solutions. A 10 mM NADPH solution in phosphate buffer was prepared before incubations. Final concentrations in the incubation mixes were 5 μM of studied compound, 500 μM of NADPH and 1 mg/ml of human liver microsomes.
(§2) Using a MyBlock mini dry-bath (Benchmark Scientific, NJ, USA), mixtures without the compounds were subjected to a 5 min pre-incubation at 37°C before each experiment. Incubations were initiated with the addition of 15 μL of the compound solution to the mixture. The experiment lasted for 30 min. Immediately after addition of the compound, 50 μL of incubation mixture was collected and mixed with 50 μL of the stopping reagent, which was ice-cold acetonitrile containing 5 μM buspirone as internal standard. The next sample collection points were after 5, 10, 15 and 30 minutes of incubation time. After stopping the reaction, suspensions were centrifuged for 10 minutes at 7378 g using a Microfuge 16 (Beckman Instruments, Fullerton, CA, USA). Subsequently, 70 μL of supernatant thus obtained was directly analyzed using LC-MS (Agilent Technologies, Santa Clara, CA, USA).
(§3) The incubation and LC-MS analysis were repeated twice for each compound. To ensure that the biological conditions were valid, and no compound degradation occurs related to the addition of the enzyme solution, a negative control for each derivative was also performed.
(§4) The LC analysis was carried out using an Agilent 1260 Infinity system (Agilent Technologies) consisting of a binary pump, autosampler, temperature-controlled column compartment and UV variable wavelength detector, coupled with an Agilent 6120 Single Quad mass detector. Incubation samples were separated at 40°C on a Poroshell 120 EC-C-18 column (3 mm x 100 mm, 2.7 μm), provided by Agilent Technologies. The data were collected and processed in ChemStation software (v. B. 04.03, Agilent Technologies, Santa Clara, CA, USA). The injection volume was 10 μL. Mobile phases consisted of deionized water (phase A) and acetonitrile (phase B), both with 10 mM ammonium formate buffer (pH = 3) added. Gradient elution program was as follows: 0–15 min—5%-100% B, 15–16 min—100% B, 16–16.10 min—100%-5% B, 16.10–21 min 5% B. The flow rate was 0.5 ml/min. The total time for a single analysis was 21 minutes. MS detection was performed using an Agilent 6120 Single Quad mass spectrometer (Agilent Technologies) equipped with an electrospray (ESI) ion source. A nebulizer (pressure set to 40 psig) allowed for the gas phase ionization of studied compounds. Nitrogen (NM32LA Nitrogen Generator, Peak Scientific Instruments, Billerica, MA, USA) was used as the drying gas, with a flow rate of 10 L/min and a drying temperature of 300°C. Capillary voltage was set to 3000 V. Fragmentor voltage was set to 150 V. Chromatograms were collected with the use of single ion monitoring (SIM) in positive ion mode.
(§5) Half-life evaluation requires a compound depletion plot, which is obtained by plotting the time of incubation against the logarithmic peak area ratio (the ratio of the compound peak area to the internal standard peak area). […] After the elimination rate constant was designated, half-lives were calculated (Equation 1).

[2] = LC-Q-TOF-MS/MS metabolite structure elucidation after microsomal incubation; settings: HLM + NADPH incubation
Description: as §1, §2
Tandem mass spectra of the metabolites were obtained with the use of an Agilent 1290 LC system connected to a hybrid Q-TOF tandem mass spectrometer (Agilent 6540 Series Accurate Mass Q-TOF-MS/MS). […] The Dual ESI source was operated in positive ion mode with the following conditions: the fragmentor voltage was set at 150V, nebulizer gas was set at 40 psig, capillary voltage was set at 3000 V, drying gas flow rate and temperature were set at 10 L/min and 300°C, respectively. The MS was operated in targeted MS/MS acquisition mode with a fixed collision energy of 35 V and a mass range of 30–1700 m/z. […] The instrument was operated in High Resolution mode (4 GHz). The Q-TOF was calibrated using reference masses 121.050873, 149.02332 and 922.009798 during the analysis run to ensure constant mass correction.
Several derivatives that varied in their degrees of non-pharmacophore ring saturation, R, R’ substituents and pharmacophore parts (2-pyridyl, 2-pyrimidynyl, phenyl-CF3), were chosen to collect fragmentation spectra using a Q-TOF tandem mass spectrometer and LC conditions as described earlier. […] The compounds’ structures and chromatographs were submitted to MassHunter Workstation Software MetaboliteID ver. B.02.00 build 2.0.121 to detect possible biotransformation products.

in vitro = settings: human, microsomes, pH 7.4
Description: as §1, §2, §3, §4, §5

SMILES | half-life at 5 μM [1] | Type of biotransformation, metabolite M1 [2] | Type of biotransformation, metabolite M2 [2] | Type of biotransformation, metabolite M3 [2] | half-life at 5 μM (in vitro)
O=c1c(-c2ccccc2)c2ccccn2c(=O)n1CCCCN1CCN(c2ncccn2)CC1 [Compound 6] | 5.29 min | hydroxylation | double hydroxylation in pharmacophore part |  | 
O=C1CC2(CCCC2)CC(=O)N1CCCCN1CCN(c2ncccn2)CC1 [Buspirone, buspirone, reference compound] | 6.59 min |  |  |  | 
COc1ccccc1-c1c(=O)n(CCCCN2CCN(c3ncccn3)CC2)c(=O)n2ccccc12 [Compound 11] | 4 min | Hydroxylation in the pharmacophore part | hydroxylation | O-demethylation reaction along with hydroxylation in the pharmacophore part; also recorded: O-demethylation and hydroxylation | 
O=C1C(c2ccccc2)C2CCCCN2C(=O)N1CCCCN1CCN(c2ccccc2F)CC1 (stereo not shown) [Compound 25] |  |  |  |  | 5.77 min
O=c1c(-c2ccccc2)c2n(c(=O)n1CCCCN1CCN(c3ncccn3)CC1)CCCC2 [Compound 30] | 9.32 min | hydroxylation of the non-pharmacophore part of the molecules; also recorded: hydroxylation in both pharmacophore and non-pharmacophore site | hydroxylation of the non-pharmacophore part of the molecules; also recorded: Hydroxylation in the non-pharmacophore part of the molecule; also recorded: hydroxylation | hydroxylation | 
